Results as given in patent US12060588B2, “Methods of editing DNA methylation” (Whitehead Institute for Biomedical Research, priority 2016, dated 2024).

What was measured:
[1] = tested on: BDNF promoter IV / BDNF expression; test: BDNF expression in mouse cortical neurons (RT-qPCR); format: cell-based
Experimental: (§1) FIGS. 3A-3E depict targeted demethylation of BDNF promoter IV by dCas9-Tet1 to activate BDNF in neurons. FIG. 3A provides a schematic representation of targeting BDNF promoter IV by dCas9-Tet1 (dC-T) with specific gRNAs to erase methylation and activate BDNF expression. […] Bars are mean t SD of three biological replicates. FIG. 3C provides representative confocal images for BDNF induction in FIG. 3B. Top panel: BDNF expression was induced by 50 mM KCl treatment for 6 hrs. […] Stained in red for MAP2 (top two panels) or Cherry (bottom two panels), green for BDNF, blue for DAPI and grey for dCas9. Scale bar: 50 um. FIG. 3D depicts bisulfite sequencing of neurons in FIG. 3C. […] Shown is the mean percentage±SD of two biological replicates.
FIGS. 11A-11L depict targeted demethylation of BDNF promoter IV by dCas9-Tet1 in neurons. […] PAM for each gRNA is highlighted by a red box. […] Note that cultured neurons were treated with AraC on DIV2 to halt cell division in glial cells and neural progenitors. […] FIG. 11C provides EDU labeling analysis for the mouse primary neurons over the course of KCl treatment for 24 hrs. Note that extremely few EDU positive cells were observed. Stained in red for EDU, green for MAP2 and DAPI for nuclei. Scale bar: 500 um. FIG. 11D Upper panel: provides quantification of neuronal density over the course of KCl treatment. The post-mitotic neuron density remains steadily around 4.5×10^4/cm2 over time. Bars represent mean±SD of three experimental replicates. Lower panel: provides quantification of the EDU positive cells over the course of KCl treatment. Less than 2% of the cells are EDU-positive over 24 hrs. Bars represent mean±SD of three experimental replicates. FIG. 11E provides confocal micrographs of BDNF induction by ectopic expression of dCas9-Tet1 and a set of 4 gRNAs targeting BDNF promoter IV. Stained in green for BDNF, magenta for MAP2, red for Cherry and blue for DAPI. Note that the lentiviral infection efficiency is close to 100% in these neurons. Scale bar: 50 um. […] Bars represent mean±SD of three experimental replicates. […] FIG. 11J depicts DIV3 mouse cortical neurons were treated with ABT (50 uM) for 6 hours and then treated with KCl (50 mM) for 6-hour before harvest for RT-qPCR analysis. Bars represent mean±SD of three experimental replicates. FIG. 11K depicts DIV3 mouse cortical neurons were treated with 2-Hydroxyglutarate (10 mM) for 2 hours and then treated with KCl (50 mM) for 6-hour before harvest for RT-qPCR analysis. Bars represent mean±SD of three experimental replicates. FIG. 11L depicts DIV3 mouse cortical neurons derived from wild-type or Tet1 knockout E17.5 embryos were subject to time course KCl treatment experiments (6, 9 and 12 h). Bars represent mean±SD of three experimental replicates.
DNA replication-independent active demethylation has been proposed to operate in post-mitotic neurons (Guo et al., 2011; Martinowich et al., 2003). To test whether active demethylation can be induced in post-mitotic neurons, we applied the dCas9-Tet1 system to study the regulation of the BDNF gene. BDNF expression can be induced by neuronal activity accompanied by demethylation of its promoter IV (Chen et al., 2003; Martinowich et al., 2003). We designed 4 gRNAs targeting 11 CpGs in BDNF promoter IV (FIG. 11A) to determine whether dCas9-Tet1 can activate BDNF by inducing demethylation of this promoter (FIG. 3A). Mouse cortical neurons were isolated from E17.5 embryos and cultured for two days in vitro (DIV2) following a well-established experimental procedure for producing primary neuronal culture (Ebert et al., 2013). […] Neurons at day 3 in culture (DIV3) were infected with lentiviral vectors expressing dCas9-Tet1 with or without the 4 gRNAs at almost 100% transduction efficiency (FIG. 11E). At 48-hour post infection some of the cultures were treated with KCl to induce neuronal activity. […] We performed bisulfite sequencing to examine the methylation state of BDNF promoter IV. […]

[2] = tested on: C3H10T1/2 mouse embryonic fibroblast cells; test: Fibroblast-to-myoblast conversion assay; format: cell-based; details: for fraction of mock C3H10T1/2 cells expressing MyoD: after 5-Aza treatment (1 uM, 24-hour)
From the text: FIGS. 4A-4H depict targeted demethylation of the MyoD distal enhancer by dCas9-Tet1 to facilitate conversion of fibroblasts to myoblasts. FIG. 4A provides a schematic representation of targeting the MyoD distal enhancer (DE) region in DMR-5 by dCas9-Tet1 (dC-T) with specific gRNAs. […] Cherry positive cells were FACS sorted for RT-qPCR analysis. Bars represent mean±SD of three experimental replicates. FIG. 4C bisulfite sequencing of cells in FIG. 4B. […] Shown is the mean percentage±SD of two biological replicates. […] C3H10T1/2 cells were plated as 1×10^4 cells per well in 6-well plate, and then infected with lentiviruses expressing dC-T and gRNAs targeting DMR-5, or a catalytic dead form of Tet1 (dC-dT) with target gRNAs. 24-hour post infection, cells were treated with vehicle control (HEPES buffer) or 5-Azacytidine (1 uM) for 24-hour, and then harvested after 14 days for immunofluorescence staining. Stained in green for MyoD, magenta for MHC and blue for DAPI. Scale bar: 200 um. FIG. 4F provides quantification of MyoD positive cell ratio 14-day post infection with lentiviruses expressing dC-T alone, dC-T with gRNAs targeting DMR-5, and dC-dT with the target gRNAs. […] FIG. 4H provides quantification of myotube density in MHC positive clusters with more than 2 or 5 nuclei at 14-days after infection. […] Data are quantified from 3-5 representative images for F-H. Bars represent mean±SD.
FIGS. 12A-12J depict targeted demethylation of the MyoD DMR-5 by dCas9-Tet1 and conversion of fibroblasts to myoblasts. […] PAM for each sgRNA is highlighted by a red box. FIG. 12B provides experimental scheme of the fibroblast-to-myoblast conversion assay. Briefly, C3H10T1/2 mouse embryonic fibroblast cells were plated as 1×10^4 cells per well in 6-well plate, and then infected with lentiviruses expressing dCas9-Tet1 and target gRNAs. 24-hour post infection, cells were optionally treated with 5-Azacytidine (1 uM) for 24-hour (labeled in red), and harvested for immunofluorescence staining at different time points (day-14, -16 and -25, labeled in dark blue) with medium change every other day. Scale bar: 100 um. […] Stained in green for MHC, red for MyoD and blue for DAPI. Scale bar: 200 um. FIG. 12D depicts a fraction of mock C3H10T1/2 cells expressing MyoD at different times after 5-Aza treatment. The fraction of cells expressing MyoD increases from around 6% at day 14 to around 13% at day 16 and reached around 20% at day 25. Bars represent mean±SD. FIG. 12E provides number of nuclei in MHC+ cell clusters (grouped as 1-2 and >2 nuclei per MHC+ cluster). […] Bars represent mean±SD. Data was quantified from 3-5 representative images for each group in FIG. 12D and FIG. 12E. […] Bars represent mean±SD of three experimental replicates. FIG. 12G provides representative images for C3H10T1/2 cells 16 days after infection with lentiviruses expressing dC-T and gRNAs targeting DMR-5 (MyoD distal enhancer) in a fibroblast-to-myoblast conversion assay as described in FIG. 12B. […] Stained in magenta for MHC, green for MyoD and blue for DAPI. Scale bar: 200 um. FIG. 12H depicts a fraction of MyoD positive cells 16 days after infection with lentiviruses expressing dC-T alone or with gRNAs targeting DMR-5. FIG. 12I show a number of nuclei in MHC+ cell clusters (grouped as 2-5, 6-10, 11-20 and >20 nuclei per MHC+ cluster) 16 days after infection. […] Data are quantified from 3-5 representative images for FIGS. 12H-12J. Bars represent mean±SD.
We then investigated whether targeted demethylation of DMR-5 would synergize with 5-Aza treatment to induce myotube formation (FIG. 12B). To follow the process of myotube formation after 5-Aza treatment, a time-course experiment was performed. Multi-nucleated myotube (MHC-positive) with heterogeneous sizes began to form 14 days post treatment, and both MyoD-positive cell ratio and myotube density and size then increased up to day-25 (FIGS. 12C-12E). […]

[3] = tested on: BDNF promoter IV; test: Tet-assisted bisulfite sequencing (TAB-seq) of 5-hmC in BDNF promoter IV; format: cell-based, mouse; details: KCl treatment for 6 hours
Experimental: FIGS. 11A-11L depict targeted demethylation of BDNF promoter IV by dCas9-Tet1 in neurons. […] PAM for each gRNA is highlighted by a red box. […] Note that cultured neurons were treated with AraC on DIV2 to halt cell division in glial cells and neural progenitors. […] FIG. 11C provides EDU labeling analysis for the mouse primary neurons over the course of KCl treatment for 24 hrs. Note that extremely few EDU positive cells were observed. Stained in red for EDU, green for MAP2 and DAPI for nuclei. Scale bar: 500 um. FIG. 11D Upper panel: provides quantification of neuronal density over the course of KCl treatment. The post-mitotic neuron density remains steadily around 4.5×10^4/cm2 over time. Bars represent mean±SD of three experimental replicates. Lower panel: provides quantification of the EDU positive cells over the course of KCl treatment. Less than 2% of the cells are EDU-positive over 24 hrs. Bars represent mean±SD of three experimental replicates. FIG. 11E provides confocal micrographs of BDNF induction by ectopic expression of dCas9-Tet1 and a set of 4 gRNAs targeting BDNF promoter IV. Stained in green for BDNF, magenta for MAP2, red for Cherry and blue for DAPI. […]
Because post-mitotic neurons were used for these experiments, loss of methylation was likely due to active demethylation. […] Similarly, 5-hmC was also detected after KCl treatment (FIG. 11I). […]

[4] = tested on: BDNF promoter IV; test: Bisulfite sequencing of BDNF promoter IV in mouse cortical neurons; format: cell-based; details: KCl 50 mM, 6 hours
Experimental: as §1
DNA replication-independent active demethylation has been proposed to operate in post-mitotic neurons (Guo et al., 2011; Martinowich et al., 2003). To test whether active demethylation can be induced in post-mitotic neurons, we applied the dCas9-Tet1 system to study the regulation of the BDNF gene. BDNF expression can be induced by neuronal activity accompanied by demethylation of its promoter IV (Chen et al., 2003; Martinowich et al., 2003). We designed 4 gRNAs targeting 11 CpGs in BDNF promoter IV (FIG. 11A) to determine whether dCas9-Tet1 can activate BDNF by inducing demethylation of this promoter (FIG. 3A). […]

**Q.** `O=C(O)CCC(O)C(=O)O` (stereo not drawn) [2-hydroxygluterate, 2-Hydroxyglutarate, reference compound] was tested. Which “effect on induction of BDNF expression by KCl treatment” value ([1]; 10 mM for 2 hours, then KCl 50 mM for 6-hour) did it give?
**A.** The value was “completely abolished the induction of BDNF expression by KCl treatment”.

**Q.** With `Nc1ncn([C@@H]2O[C@H](CO)[C@@H](O)[C@H]2O)c(=O)n1` [5-Aza, 5-Azacytidine] as the compound, how does the “MHC+ myotube formation” value ([2]; 5-Aza (1 uM, 24-hour), 14 days after infection) read?
**A.** The value was “induces MHC+ myotube formation”.

**Q.** What about the “fraction of mock C3H10T1/2 cells expressing MyoD” value (from here on “fraction”) ([2]; day 14) of the same compound?
**A.** Its value is “around 6%”.

**Q.** And the “fraction” value ([2]; day 16)?
**A.** The value was “around 13%”.

**Q.** And the “fraction” value ([2]; day 25)?
**A.** Its value is “around 20%”.

**Q.** With `C[C@]1(c2nc3c(C(N)=O)cccc3[nH]2)CCCN1` [ABT-888, reference compound] as the compound, how does the “effect on activation of BDNF by KCl treatment” value ([1]; 50 uM for 6 hours, then KCl 50 mM for 6-hour) read?
**A.** The value was “reduced the activation of BDNF by KCl treatment”.

**Q.** What does the source list for `[Cl-].[K+]` [KCl, reference compound]?
**A.** 5-hmC level in BDNF promoter IV [3]: detected; BDNF expression ([1]; KCl 50 mM treatment of DIV3 neurons): induced BDNF expression; methylation of BDNF promoter IV CpGs (positions relative to transcription start site) [4]: induced demethylation of CpGs at positions of −148, −66 and 19
